In patent US20260165323A1, “USE OF STROBILURIN TYPE COMPOUNDS FOR COMBATING PHYTOPATHOGENIC FUNGI CONTAINING AN AMINO ACID SUBSTITUTION F129L IN THE MITOCHONDRIAL CYTOCHROME B PROTEIN CONFERRING RESISTANCE TO QO […]” (priority 2022, published 2026):

What was measured:
Format in all cases: in vivo
[1] = system: Phakopsora pachyrhizi containing the amino acid substitution F129L in the mitochondrial cytochrome b protein; assay: Use Example 1: protective control of soybean rust on soybeans (PHAKPA P2); settings: inoculated 2 days after spraying, % diseased leaf area
Method: (§1) The compound was dissolved in a mixture of acetone and/or dimethylsulfoxide and the wetting agent/emulsifier Wettol, which is based on ethoxylated alkylphenoles, in a ratio (volume) solvent-emulsifier of 99 to 1 to give a total volume of 5 ml. Subsequently, water was added to total volume of 100 ml. This stock solution was then diluted with the described solvent-emulsifier-water mixture to the final concentration given in the tables below.
Use Example 1. Protective Control of Soybean Rust on Soybeans Caused by Phakopsora pachyrhizi (PHAKPA P2)
(§2) Leaves of potted soybean seedlings were sprayed to run-off with the previously described spray solution, containing the concentration of active ingredient or their mixture as described below. The plants were allowed to air-dry. The trial plants were cultivated for 2 days in a greenhouse chamber at 23-27° C. and a relative humidity between 60 and 80%. Then the plants were inoculated with spores of Phakopsora pachyrhizi. The strain used contains the amino acid substitution F129L in the mitochondrial cytochrome b protein conferring resistance to Qo inhibitors. To ensure the success the artificial inoculation, the plants were transferred to a humid chamber with a relative humidity of about 95% and 20 to 24° C. for 24 hr. The trial plants were cultivated for up to 14 days in a greenhouse chamber at 23 to 27° C. and a relative humidity between 60 and 80%. The extent of fungal attack on the leaves was visually assessed as % diseased leaf area, the disease level of untreated controls was usually higher than 85%.

[2] = system: Phakopsora pachyrhizi containing the amino acid substitution F129L in the mitochondrial cytochrome b protein; assay: Use Example 2: protective control of soybean rust on soybeans (PHAKPA P6); settings: inoculated six days after spraying, % diseased leaf area
Method: as §1
Use Example 2. Protective Control of Soybean Rust on Soybeans Caused by Phakopsora Pachyrhizi (PHAKPA P6)
as §2, with “active ingredient as described” for “active ingredient or their mixture as described”, “cultivated for six days in” for “cultivated for 2 days in”, “95% and 23 to 27°” for “95% and 20 to 24°”, “23 to 27° C. for” for “20 to 24° C. for”

Puccinia recondita [3] = assay: Use Example 3: curative control of brown rust on wheat (PUCCRT K4); settings: % diseased leaf area
Method: as §1
Use Example 3. Curative Control of Brown Rust on Wheat Caused by Puccinia recondita (PUCCRT K4)
The first two developed leaves of potted wheat seedling were dusted with spores of Puccinia recondita. To ensure the success the artificial inoculation, the plants were transferred to a humid chamber without light and a relative humidity of 95 to 99% and 20 to 24° C. for 24 h. The next 3 days the plants were cultivated in a greenhouse chamber at 20 to 24° C. and a relative humidity between 65 and 70%. Then the plants were sprayed to run-off with previously described spray solution, containing the concentration of active ingredient or their mixture as described below. The plants were allowed to air-dry. Then the trial plants were cultivated for 5 to 7 days in a greenhouse chamber at 20 to 24° C. and a relative humidity between 65 and 70%. The extent of fungal attack on the leaves was visually assessed as % diseased leaf area, the disease level of untreated controls was usually between 80 and 100%.

Puccinia recondita [4] = assay: Use Example 4: preventative control of brown rust on wheat (PUCCRT P7); settings: inoculated seven days after spraying, % diseased leaf area
Method: as §1
Use Example 4. Preventative Control of Brown Rust on Wheat Caused by Puccinia recondita (PUCCRT P7)
The first two developed leaves of potted wheat seedling were sprayed to run-off with previously described spray solution, containing the concentration of active ingredient or their mixture as described below. Seven days later the plants were dusted with spores of Puccinia recondita. To ensure the success of the artificial inoculation, the plants were transferred to a humid chamber without light and a relative humidity of 95 to 99% and 20 to 24° C. for 24 h. Then the trial plants were cultivated for 9 to 11 days in a greenhouse chamber at 20 to 24° C. and a relative humidity between 65 and 70%. The extent of fungal attack on the leaves was visually assessed as % diseased leaf area, the disease level of untreated controls was usually between 80 and 100%.

Compound | % PHAKPA (F129L) Disease level P2 at 4 ppm [1] | % PHAKPA (F129L) Disease level P2 at 16 ppm [1] | % PHAKPA (F129L) Disease level P6 at 4 ppm [2] | % PHAKPA (F129L) Disease level P6 at 16 ppm [2] | % PUCCRT Disease level K4 at 4 ppm (Puccinia recondita [3]) | % PUCCRT Disease level K4 at 16 ppm (Puccinia recondita [3]) | % PUCCRT Disease level P7 at 4 ppm (Puccinia recondita [4]) | % PUCCRT Disease level P7 at 16 ppm (Puccinia recondita [4])
COC/C(=N\OCc1c(Cl)cccc1/C(=N\OC)C(=O)OC)c1ccccc1F [compound 19] | 33% | 6% | 77% | 31% | 87% | 80% | 53% | 15%
CCOCC(=NOCc1c(Cl)cccc1C(=COC)C(=O)OC)c1ccccc1F [compound 18] | 6% | 0% | 22% | 2% | 77% | 32% | 80% | 30%
CCOC/C(=N\OCc1c(Cl)cccc1/C(=N\OC)C(=O)OC)c1ccccc1 [compound 53] | 88% | 57% | 93% | 80% | 83% | 78% | 87% | 78%
CNC(=O)/C(=N/OC)c1cccc(Cl)c1CO/N=C(\COC)c1ccc(F)cc1F [compound 84] | 5% | 0% | 2% | 0% | 58% | 9% | 35% | 5%
CNC(=O)/C(=N/OC)c1cccc(Cl)c1CO/N=C(\COC)c1ccc(Cl)cc1F [compound 100] | 24% | 2% | 20% | 3% | 78% | 6% | 12% | 4%
CNC(=O)/C(=N/OC)c1cccc(Cl)c1CO/N=C(\COC)c1cccc(F)c1 [compound 41] | 3% | 0% | 14% | 1% | 72% | 12% | 23% | 4%
CO/C=C(/C(=O)OC)c1cccc(Cl)c1CO/N=C(\COC)c1cc(F)c(F)c(F)c1 [compound 67] | 10% | 0% | 14% | 0% | 36% | 3% | 4% | 3%
CCOC/C(=N\OCc1c(Cl)cccc1/C(=N\OC)C(=O)NC)c1ccccc1 [compound 55] | 37% | 1% | 40% | 9% | 77% | 47% | 53% | 29%
CCOC/C(=N\OCc1c(Cl)cccc1/C(=N\OC)C(=O)OC)c1cccc(F)c1 [compound 26] | – | – | – | – | 82% | 82% | 62% | 21%
CO/C=C(/C(=O)OC)c1cccc(Cl)c1CO/N=C(\COC)c1cccc(C)c1 [compound 128] | 4% | 0% | 4% | 1% | 20% | 1% | – | –
CNC(=O)/C(=N/OC)c1cccc(Cl)c1CO/N=C(\COC)c1c(F)ccc(F)c1F [compound 112] | 8% | 0% | 21% | 0% | – | – | 43% | 6%
CCOC/C(=N\OCc1c(Cl)cccc1/C(=N\OC)C(=O)OC)c1ccc(F)cc1 [compound 24] | – | – | – | – | 83% | 82% | 68% | 48%
CO/C=C(/C(=O)OC)c1cccc(F)c1CO/N=C(\COC)c1c(F)cc(F)cc1F [compound 125] | – | – | – | – | 68% | 7% | – | –
CNC(=O)/C(=N/OC)c1cccc(Cl)c1CO/N=C(\COC)c1cccc(C)c1 [compound 127] | 21% | 0% | 18% | 4% | 58% | 1% | – | –
CNC(=O)/C(=N/OC)c1cccc(Cl)c1CO/N=C(\COC)c1ccccc1C [compound 122] | 82% | 20% | 76% | 30% | – | – | 45% | 20%
COC/C(=N\OCc1c(Cl)cccc1/C(=N\OC)C(=O)OC)c1ccc(F)cc1F [compound 78] | 9% | 0% | 45% | 2% | – | – | 42% | 10%
COC/C(=N\OCc1c(Cl)cccc1/C(=N\OC)C(=O)OC)c1c(F)ccc(F)c1F [compound 111] | 39% | 5% | 42% | 15% | – | – | 30% | 17%
COC/C(=N\OCc1c(Cl)cccc1/C(=N\OC)C(=O)OC)c1ccc(F)c(F)c1 [compound 90] | 11% | 0% | 42% | 13% | – | – | 32% | 10%
CCOC/C(=N\OCc1c(Cl)cccc1/C(=N\OC)C(=O)NC)c1ccccc1Cl [compound 51] | – | – | – | – | 72% | 68% | 75% | 53%
